Experimental data reported in patent publication US9403756B2, “N-phenyl anthranilic acid derivatives and uses thereof” (Ramot at Tel-Aviv University Ltd., priority 2007, dated 2016).
Entries after “also recorded” stand apart in the source; their conditions may differ.

Columns and labels:
[1] = tested on: maximal electroshock seizure model (MES) in ICR mice; assay: Maximal electroshock seizure test (MES); assay type: in vivo; settings: Mus musculus, ip; mice; intraperitoneal, 30 minutes before electroshock; 50 mA, 0.2 sec; read-out: ED50, protection against tonic extension caused by MES
Procedure: The anti-convulsant effect was measured by the maximal electroshock seizure model (MES) in ICR mice as previously described. The procedures followed for experimentation and maintenance of the animals were approved by the animal research ethics committee of Tel Aviv University and in accordance with the Guide for the Care and Use of Laboratory Animals (1996, National Academy of Sciences, Washington D.C.). Briefly, maximal electroshock was induced in adult mice by means of two transcorneal electrodes delivering an alternative current of 50 mA at 60 Hz for 0.2 sec using rodent shocker (Hugo Sachs Electronik, type 221). […] The compounds, dissolved in 0.9% saline, were administered intraperitoneally 30 minutes before the electroshock was performed. Animals failing to show tonic hind limb extension were scored as protected and were expressed in percentage.

KCNQ2 mutant I209L = biological target: T1, KCNQ2 mutant I209L (Homo sapiens, UniProt O43526, I209L); assay: KCNQ2 S4 mutant I209L; assay type: cell-based; settings: NH29
T1 construct: expressed in transfected cells; host or cells: CHO cells
Text: (§1) FIGS. 12A-F present the potentiating effect of NH29, an exemplary channel opener compound according to embodiments of the present invention, on selected KCNQ2 mutants. Shown are bar diagrams comparing the potentiating effect of NH29 on native KCNQ2 and KCNQ2 mutants, wherein the mutated amino acids are located at the S1-S2 helix region (FIG. 12A) or S4 helix region (FIG. 12D) and wherein the opener effect is expressed as percent of the control current in the absence of the opener. For comparison, marked as a green line, is the observed current increase of native KCNQ2 by NH29. FIGS. 12B 12C, 12E and 12F present representative traces recorded from CHO cell transfected with the KCNQ2 mutant S122A, S121A, L206C and R201A respectively, before and after external application of 25 μM of NH29 and wherein the membrane potential was stepped from −90 mV holding potential to −40 mV for 1.5 seconds pulse duration.
(§2) Voltage-clamp recordings in CHO cells were performed, using the whole-cell configuration of the patch-clamp technique. Signals were amplified using an Axopatch 200B patch-clamp amplifier (Molecular Devices, Sunnyvale, Calif.), sampled at 2 kHz and filtered at 800 Hz via a 4-pole Bessel low pass filter. […] Series resistances (3-13 MΩ) were compensated (75-90%) and periodically monitored.

KCNQ2 mutant R201A = biological target: T2, KCNQ2 mutant R201A (Homo sapiens, UniProt O43526, R201A); assay: KCNQ2 S4 mutant R201A in CHO cells; assay type: cell-based; settings: 25 μM NH29 (25 M [sic])
T2 construct: expressed in transfected cells; host or cells: CHO cells
Text: as §1, §2

KCNQ2 mutant L197G = biological target: T3, KCNQ2 mutant L197G (Homo sapiens, UniProt O43526, L197G); assay: KCNQ2 S4 mutant L197G; assay type: cell-based; settings: 25 μM NH29 (25 M [sic])
T3 construct: expressed in transfected cells
Text: as §1, §2

Kv 7.1 = biological target: T4, Kv 7.1 (Homo sapiens, UniProt P51787); assay: Kv channel selectivity, Xenopus oocytes: Kv7.1; assay type: cell-based; settings: for Fold current amplitude: +30 mV, Xenopus oocytes
T4 construct: expressed in transfected cells; host or cells: Xenopus oocytes
Procedure: (§3) Voltage-clamp measurements in Xenopus oocytes were performed as previously described.
(§4) The selectivity of NH29 on other relevant Kv channels expressed in Xenopus oocytes was also studied, and the results are summarized in Table 3 below. The specificity of NH29 at 25 μM and 50 μM towards various Kv channels was tested in Xenopus oocytes, except for Kv1.2 which was checked in transfected CHO cells. The current amplitude of the various Kv channels was tested at the indicated voltages and the effect of the drugs was expressed as fold of the control amplitude measured under the same conditions in the absence of the drug. The data in Table 3 are expressed as mean±SEM of 5-7 separate experiments.

Kv 2.1 = biological target: T5, Kv 2.1 (Homo sapiens, UniProt Q14721); assay: Kv channel selectivity, Xenopus oocytes: Kv2.1; assay type: cell-based; settings: 25 μM, +30 mV
T5 construct: expressed in transfected cells; host or cells: Xenopus oocytes
Procedure: as §3, §4

Kv11.1 or Herg = biological target: T6, Kv11.1 or Herg (Homo sapiens, UniProt Q12809); assay: Kv channel selectivity, Xenopus oocytes: Kv11.1; assay type: cell-based; settings: 25 μM, −10 mV
T6 construct: expressed in transfected cells; host or cells: Xenopus oocytes
Procedure: as §3, §4

KCNQ2 mutant R214W = biological target: T7, KCNQ2 mutant R214W (Homo sapiens, UniProt O43526, R214W); assay: KCNQ2 S4 mutant R214W; assay type: cell-based; settings: NH29; to a lesser extent
T7 construct: expressed in transfected cells; host or cells: CHO cells
Text: as §1, §2

Kv 7.4 = biological target: T8, Kv 7.4 (Homo sapiens, UniProt P56696); assay: Kv channel selectivity, Xenopus oocytes: Kv7.4; assay type: cell-based; settings: −30 mV
T8 construct: expressed in transfected cells; host or cells: Xenopus oocytes
Procedure: as §3, §4

TRPV6 channel = biological target: T9, TRPV6 channel (Homo sapiens, UniProt Q9H1D0); assay: TRPV6 currents in transfected CHO cells; assay type: cell-based; settings: 25 μM NH29; −80 mV to 100 mV
T9 construct: expressed in transfected cells; host or cells: CHO cells
Procedure: FIGS. 15A-C present the lack of effect of NH29, an exemplary compound according to some embodiments of the present invention, on TRPV6 channel. FIG. 15A presents superimposed representative traces recorded from a CHO cell transfected with TRPV6 before (marked control) during (marked 165s) and after (marked wash) external application of 25 μM NH29, and wherein the membrane potential was stepped from −80 mV to 100 mV for 40 seconds pulse duration (protocol shown in upper panel). The current amplitude was measured at peak current points (marked a 1 at −80 mV and a2 at +100 mV) and plotted as a function of recording time (FIGS. 15B and 15C respectively).
Chinese hamster ovary (CHO) cells were grown in Dulbecco's modified Eagle's medium (DMEM) supplemented with 2 mM glutamine, 10% fetal calf serum and antibiotics. Briefly, 40,000 cells seeded on poly-D-lysine-coated glass coverslips (13 mm diameter) in a 24-multiwell plate were transfected with pIRES-CD8 (0.5 μg) as a marker for transfection, and with Kv7.2 (0.5 μg) and Kv7.3 (0.5 μg) or TRPV1 […] or TRPV6 […].
For electrophysiology, transfected cells were visualized approximately 40 hours following transfection, using anti-CD8 antibody-coated beads. Transfection was performed using Fugene 6 (Roche, Indianapolis Ind., USA) according to the manufacturer's protocol. […]

T4 sequence (P51787 whole entry): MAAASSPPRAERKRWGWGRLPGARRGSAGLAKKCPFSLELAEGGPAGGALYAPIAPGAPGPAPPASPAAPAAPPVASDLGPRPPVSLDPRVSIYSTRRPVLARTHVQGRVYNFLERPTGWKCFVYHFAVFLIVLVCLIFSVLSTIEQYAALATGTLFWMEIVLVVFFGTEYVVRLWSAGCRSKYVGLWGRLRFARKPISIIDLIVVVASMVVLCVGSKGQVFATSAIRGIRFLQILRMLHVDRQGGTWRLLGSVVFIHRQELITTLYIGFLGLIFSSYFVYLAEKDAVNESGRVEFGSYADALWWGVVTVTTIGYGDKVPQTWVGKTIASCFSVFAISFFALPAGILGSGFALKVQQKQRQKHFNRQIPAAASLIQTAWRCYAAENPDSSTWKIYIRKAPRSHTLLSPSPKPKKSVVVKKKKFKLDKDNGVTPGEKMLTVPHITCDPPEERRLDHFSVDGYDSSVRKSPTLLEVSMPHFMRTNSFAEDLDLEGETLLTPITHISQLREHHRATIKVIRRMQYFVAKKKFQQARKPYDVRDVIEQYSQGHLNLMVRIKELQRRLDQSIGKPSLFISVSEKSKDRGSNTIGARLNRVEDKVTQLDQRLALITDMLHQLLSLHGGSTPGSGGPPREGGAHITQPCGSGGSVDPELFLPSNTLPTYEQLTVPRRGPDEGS
T8 sequence (P56696 whole entry): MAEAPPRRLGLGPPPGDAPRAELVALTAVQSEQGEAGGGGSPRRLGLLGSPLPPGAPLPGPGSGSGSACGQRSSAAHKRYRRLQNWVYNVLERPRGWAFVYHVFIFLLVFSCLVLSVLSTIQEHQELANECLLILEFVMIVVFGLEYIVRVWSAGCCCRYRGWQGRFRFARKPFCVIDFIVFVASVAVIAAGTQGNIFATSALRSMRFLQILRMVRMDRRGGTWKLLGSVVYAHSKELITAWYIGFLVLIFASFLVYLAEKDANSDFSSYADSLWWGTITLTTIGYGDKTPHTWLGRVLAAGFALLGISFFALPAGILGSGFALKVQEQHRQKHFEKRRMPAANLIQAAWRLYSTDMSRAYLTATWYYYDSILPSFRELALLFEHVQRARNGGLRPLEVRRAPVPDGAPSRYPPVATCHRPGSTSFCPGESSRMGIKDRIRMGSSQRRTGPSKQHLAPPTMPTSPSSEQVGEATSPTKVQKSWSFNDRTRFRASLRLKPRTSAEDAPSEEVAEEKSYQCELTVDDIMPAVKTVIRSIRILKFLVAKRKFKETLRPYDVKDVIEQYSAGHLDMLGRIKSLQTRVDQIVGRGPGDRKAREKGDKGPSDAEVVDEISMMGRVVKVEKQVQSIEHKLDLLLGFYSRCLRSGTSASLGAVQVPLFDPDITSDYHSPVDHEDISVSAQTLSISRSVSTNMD
T9 sequence (Q9H1D0 whole entry): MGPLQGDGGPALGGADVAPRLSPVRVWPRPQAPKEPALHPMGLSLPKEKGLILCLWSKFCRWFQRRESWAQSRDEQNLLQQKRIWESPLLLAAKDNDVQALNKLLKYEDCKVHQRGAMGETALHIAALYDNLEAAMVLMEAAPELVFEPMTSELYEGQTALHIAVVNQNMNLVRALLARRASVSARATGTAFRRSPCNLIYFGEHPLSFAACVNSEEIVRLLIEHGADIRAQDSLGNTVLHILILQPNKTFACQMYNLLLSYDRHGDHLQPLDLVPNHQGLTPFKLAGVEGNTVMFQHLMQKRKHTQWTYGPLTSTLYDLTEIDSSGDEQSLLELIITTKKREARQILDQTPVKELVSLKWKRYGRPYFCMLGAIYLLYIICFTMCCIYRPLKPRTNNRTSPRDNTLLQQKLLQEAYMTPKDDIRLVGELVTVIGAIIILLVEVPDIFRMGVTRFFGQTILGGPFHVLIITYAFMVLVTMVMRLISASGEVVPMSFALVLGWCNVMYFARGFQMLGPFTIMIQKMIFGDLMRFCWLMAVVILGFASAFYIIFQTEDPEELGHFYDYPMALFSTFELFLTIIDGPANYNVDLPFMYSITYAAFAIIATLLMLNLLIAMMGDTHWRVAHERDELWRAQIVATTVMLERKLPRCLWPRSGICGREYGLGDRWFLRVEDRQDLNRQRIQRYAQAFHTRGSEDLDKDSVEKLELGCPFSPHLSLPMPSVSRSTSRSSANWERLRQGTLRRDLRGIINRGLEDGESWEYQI
T1 sequence (O43526 whole entry I209L): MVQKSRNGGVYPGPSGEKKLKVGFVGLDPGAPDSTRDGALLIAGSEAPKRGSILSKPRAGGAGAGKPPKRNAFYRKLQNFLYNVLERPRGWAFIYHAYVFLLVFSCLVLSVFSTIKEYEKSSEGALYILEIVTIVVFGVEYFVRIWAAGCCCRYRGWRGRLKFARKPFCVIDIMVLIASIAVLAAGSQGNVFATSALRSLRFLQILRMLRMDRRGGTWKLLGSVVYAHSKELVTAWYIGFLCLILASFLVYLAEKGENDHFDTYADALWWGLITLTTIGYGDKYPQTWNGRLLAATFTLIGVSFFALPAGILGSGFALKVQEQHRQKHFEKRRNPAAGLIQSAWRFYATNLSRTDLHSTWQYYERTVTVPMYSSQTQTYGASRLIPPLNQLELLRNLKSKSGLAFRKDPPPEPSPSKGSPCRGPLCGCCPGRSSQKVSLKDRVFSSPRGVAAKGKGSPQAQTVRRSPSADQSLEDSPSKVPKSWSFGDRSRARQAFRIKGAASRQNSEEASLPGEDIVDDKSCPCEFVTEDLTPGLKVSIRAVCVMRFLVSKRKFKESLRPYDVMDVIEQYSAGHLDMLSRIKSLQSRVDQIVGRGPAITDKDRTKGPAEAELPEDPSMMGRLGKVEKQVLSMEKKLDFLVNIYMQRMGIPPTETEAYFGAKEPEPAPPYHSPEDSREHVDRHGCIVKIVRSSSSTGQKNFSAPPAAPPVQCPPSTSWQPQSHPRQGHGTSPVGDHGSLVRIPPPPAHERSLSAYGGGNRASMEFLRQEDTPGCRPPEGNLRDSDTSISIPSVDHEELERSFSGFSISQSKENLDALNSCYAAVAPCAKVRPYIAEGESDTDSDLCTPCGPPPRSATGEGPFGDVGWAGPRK
T6 sequence (Q12809 whole entry): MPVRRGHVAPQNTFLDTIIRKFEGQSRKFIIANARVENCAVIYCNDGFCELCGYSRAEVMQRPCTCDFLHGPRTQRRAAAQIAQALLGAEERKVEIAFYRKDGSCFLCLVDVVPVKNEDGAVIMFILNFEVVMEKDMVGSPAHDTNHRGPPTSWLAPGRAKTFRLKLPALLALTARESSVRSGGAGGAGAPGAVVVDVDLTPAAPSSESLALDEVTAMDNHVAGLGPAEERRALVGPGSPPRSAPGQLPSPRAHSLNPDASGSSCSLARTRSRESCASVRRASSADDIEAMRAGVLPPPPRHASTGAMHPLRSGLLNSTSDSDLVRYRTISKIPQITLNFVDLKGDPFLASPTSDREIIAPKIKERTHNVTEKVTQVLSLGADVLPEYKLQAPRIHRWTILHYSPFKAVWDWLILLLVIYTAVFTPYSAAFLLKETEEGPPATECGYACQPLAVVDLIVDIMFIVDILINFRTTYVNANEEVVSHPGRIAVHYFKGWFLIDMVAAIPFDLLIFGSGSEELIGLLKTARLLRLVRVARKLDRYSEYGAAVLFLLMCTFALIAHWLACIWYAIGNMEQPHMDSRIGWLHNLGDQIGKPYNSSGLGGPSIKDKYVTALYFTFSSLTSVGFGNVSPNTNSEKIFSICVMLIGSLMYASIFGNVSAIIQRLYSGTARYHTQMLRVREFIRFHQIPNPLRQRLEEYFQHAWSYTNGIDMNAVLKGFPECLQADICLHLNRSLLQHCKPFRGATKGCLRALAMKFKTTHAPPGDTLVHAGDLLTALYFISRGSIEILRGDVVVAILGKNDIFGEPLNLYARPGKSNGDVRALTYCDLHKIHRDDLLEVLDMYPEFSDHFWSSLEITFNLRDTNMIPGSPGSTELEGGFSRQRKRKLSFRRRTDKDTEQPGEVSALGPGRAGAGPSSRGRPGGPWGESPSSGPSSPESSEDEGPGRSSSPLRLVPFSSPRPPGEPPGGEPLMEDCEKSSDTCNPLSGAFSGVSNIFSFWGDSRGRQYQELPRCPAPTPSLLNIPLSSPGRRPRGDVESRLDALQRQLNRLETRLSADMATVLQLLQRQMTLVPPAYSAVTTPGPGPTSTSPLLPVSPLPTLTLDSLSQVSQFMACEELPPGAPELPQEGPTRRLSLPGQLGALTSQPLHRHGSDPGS
T3 sequence (O43526 whole entry L197G): as the sequence (O43526 whole entry I209L) above, with L197G, L209I counted along it
T2 sequence (O43526 whole entry R201A): as the sequence (O43526 whole entry I209L) above, with R201A, L209I counted along it
T7 sequence (O43526 whole entry R214W): as the sequence (O43526 whole entry I209L) above, with L209I, R214W counted along it

O=C(Cc1cc([N+](=O)[O-])ccc1Nc1c(Cl)cccc1Cl)OCCO [NH25]
ED50 [1]: 12 mg/kg

O=C(Cc1cc([N+](=O)[O-])cc([N+](=O)[O-])c1Nc1c(Cl)cc([N+](=O)[O-])cc1Cl)NCCO [NH29]
sensitivity to the activating effect compared to wild-type Kv7.2 (KCNQ2 mutant I209L): significantly less sensitive | fold enhancement of current (KCNQ2 mutant R201A): 1.2 fold | fold enhancement of current (KCNQ2 mutant L197G): 1.5 fold | Fold current amplitude (Kv 7.1; 25 μM): 0.93 ± 0.02 fold | Fold current amplitude (Kv 7.1; 50 μM): 0.72 ± 0.02 fold | inhibition at 50 µM (Kv 7.1; 50 μM, read-out: inhibition of Kv7.1 current): 23% | Fold current amplitude (Kv 2.1): 1.2 ± 0.09 fold | Fold current amplitude (Kv11.1 or Herg): 1.1 ± 0.02 fold | sensitivity to the activating effect compared to wild-type Kv7.2 (KCNQ2 mutant R214W): significantly less sensitive | Fold current amplitude (Kv 7.4; 25 μM): 1.0 ± 0.12 fold | Fold current amplitude (Kv 7.4; 50 μM): 0.9 ± 0.04 fold | modulation of TRPV6 current (TRPV6 channel): lack of modulation; also recorded: no similar inhibition of TRPV6 was observed
